Source: patent publication US20260357349A1, “METHODS OF IDENTIFYING AND TREATING CANCER” (Agency for Science, Technology and Research, priority 2022, published 2026)
“Also recorded” adds a separate entry of the source.

Columns and labels:
[1] = test system: IκBα / NF-κB; details: cited from earlier work
[2] = test system: NF-κB target genes (786-O cells); experiment: RT-qPCR of NF-κB target genes after NF-κB inhibitor, 786-O; assay type: cell-based, human; details: 0.006 μM bortezomib or 0.6 µM Bay 11-7085, 24 hours
Description: (§1) Colony formation of parental (WT) or PBRM1 knockout (KO) 786-O cells expressing shRNA against non-targeting control (NC), RELA, or NFKB1 cultured with a) 10% or b) 2% serum. c) Gene expression changes of NF-κB target genes in 786-O cells treated with 0.006 μM bortezomib (BTZ) or 0.6 µM Bay 11-7085 for 24 hours (n=3 technical replicates). * p-value<0.05 (two-sided t-test). […] A positive log fold change refers to gain in bortezomib treatment over DMSO. g) Colony formation of 786-O isogenic cells and h) NCC432 isogenic cells treated with bortezomib for a week. Tumor formation of isogenic 786-O cells (i) and NCC432 cells (j) treated with PBS control or 0.5 mg/kg bortezomib (BTZ) in NSG mice. (n=10 tumors per group for 786-O, and n=16 tumors for NCC432 PBS EV group and 12 tumors for NCC432 PBS PBRM1 group and 14 tumors for both NCC432 EV and PBRM1 BTZ groups). Data are presented as mean values+/−SEM. k) Model for the study.

[3] = test system: 786-O cells; experiment: Colony formation, 786-O isogenic cells; assay type: cell-based, human; details: 786-O with and without PBRM1, vs DMSO
Description: as §1
Data are presented as median+/−25%. […] Data are presented as mean values+/−SD. e) Tornado plots of RELA and SMARCA4 ChIP-seq signals in parental 786-0 or PBRM1-KO 786-O cells treated with DMSO or 0.005 μM bortezomib for 9 hours. f) Kaplan-Meier curves of NSG mice bearing 786-O isogenic cells treated with PBRM1 control or 0.5 mg/kg bortezomib (WT: n=10 PBS arm, median survival=39 days; n=10 bortezomib arm, median survival=52 days, HR=4.1, p=3E-6, log rank test; KO: n=10 PBS arm, median survival=35 days, n=10 bortezomib arm, median survival=66 days, HR=4.1, p=3E-6, log rank test). g) Kaplan-Meier curves of NSG mice bearing NCC432 isogenic cells treated with PBRM1 control or 0.5 mg/kg bortezomib (EV: n=16 PBS arm, median survival=42 days; n=14 bortezomib arm, median survival=49 days, HR=2.5, p=0.0009, log rank test; PBRM1: n=12 PBS arm, median survival=55 days; n=14 bortezomib arm, median survival=58 days, HR=1.2, p=0.5, log rank test). h) 786-O PBRM1 WT or KO cells were screened against the high-specific SGC epigenetic probe collection and cell viability was measured by colony formation after 1 week of treatment relative to DMSO control. […]

[4] = test system: NF-κB pathway (786-O cells); experiment: RNA-seq gene set enrichment of direct NF-κB targets after SMARCA2/4 ATPase inhibitor, 786-O; assay type: cell-based, human; details: 10 μM, 24 hours
Description: Data are presented as mean values+/−SD. b, c) 786-O parental and PBRM1 KO cells were treated with 10 μM of SMARCA2/4 ATPase inhibitor for 24 hours and transcriptomic changes were evaluated by RNA-seq (n=2 biological replicates). […] P values were calculated by Kolmogorov-Smirnov test and q value was adjusted for multiple hypotheses testing using gene permutation. d) 786-O cells expressing dox inducible shRNA against ARID2 were treated with 1 μg/ml doxycycline for 2 days and the gene expression of NF-κB targets were quantified by RT-qPCR (n=3 technical replicates representative of 2 biological replicates). Data are presented as mean values+/−SD. * p<0.05, ** p<0.01 (two-sided t-test). e) Single cell clones of either PBRM1 or ARID2 knockout were created in 769-P cells. […] P values were calculated by Kolmogorov-Smirnov test and q values were adjusted for multiple hypotheses testing using gene permutation. […]
Total RNA was extracted using the Qiagen RNeasy Mini kit. […] Sequencing was performed on an Illumina HiSeq4000 sequencer with the paired-end 150 bp read option.
RNA-Seq Pathway Analysis RNA-seq data were mapped to hg19 (h117d5) using STAR, with GENCODE annotation (gencode.v19.annotation.gtf) and recommended settings from STAR manual. Gene expression levels were quantified with STAR. […]

[5] = test system: RELA occupancy at NF-κB target genes; experiment: ChIP-qPCR of RELA occupancy after SMARCA2/4 ATPase inhibitor, 786-O; assay type: cell-based, human; details: PB1-deficient setting, 24 hours
Description: For each protein of interest, approximately 2×10^7 cells were cross-linked with 1% formaldehyde for 10 min at room temperature, and stopped by adding glycine to a final concentration of 0.2M. Chromatin was extracted and sonicated to ~500 bp (Vibra cell, SONICS). The following antibodies were used for chromatin immunoprecipitation: PBRM1 (Bethyl A301-591A Lot: 3-4), SMARCA4 (AbCAM ab110641 Lot: GR3208604-8), ARID2 (Bethyl A302-230A Lot: 2), BRD7 (Bethyl A302-304A Lot: 1), ARID1A (Santa Cruz sc-32761 Lot: #H2217), SMARCC1 (Santa Cruz sc-32763 Lot: #K1617), NFkB p65/RELA (Santa Cruz sc-372 Lot: #J1915; Diagenode C15310256, Lot: 24468; Invitrogen 51-0500, Lot: WG331314), BRD9 (Bethyl A303-781A, Lot2), RNA POL II (Merck Millipore 05-623 Lot: 2958013), H3K27ac (AbCAM ab4729-100 Lot: 741806), H3K14ac (AbCAM ab52946 Lot: GR3252548-5), H3K4me3 (Merck Millipore 07-473 Lot: 2930138), H3K4me1 (AbCAM ab8895 Lot: GR312093-1), H3K27me3 (Millipore 07-449 Lot: JBC1924326), H3K9me3 (Millipore 07-442 Lot: DAM1411287). The total volume of immunoprecipitation was 2 ml and the amount of antibody used was 20 μg. The input DNA was precleared with protein G Dynabeads (LifeTechnologies) for 2 hours at 4 °C and then incubated with antibodies overnight at 4 °C. […] Each library was sequenced to an average depth of 30-50 million reads on HiSeq2000, HiSeq4000 or Novaseq 6000.

[6] = test system: NF-κB target genes (NCC432 cells); experiment: RT-qPCR of NF-κB target genes after SMARCA2/4 ATPase inhibitor, NCC432; assay type: cell-based, human
Source text: Data are presented as mean values+/−SD. b) Colony formation of 786-O cells expressing shRNA against non-targeting control (NTC) or ARID2. c) Colony formation of 786-O cells expressing shRNA against non-targeting control (NTC) or SMARCA4. d) Immunoblotting and e) colony formation of NCC432 cells expressing shRNA against non-targeting control (NTC) or ARID2 (n=3 biological replicates). Data are presented as mean values+/−SD. * p<0.05, ** p<0.01 (two-sided t-test). f) Immunoblotting and g) colony formation of NCC432 cells expressing shRNA against non-targeting control (NTC) or SMARCA4 (n=4 biological replicates). Data are presented as mean values+/−SD. *** p<0.001, **** p<0.0001 (two-sided t-test). In vivo tumor formation in h) 786-O parental cells and i) 786-0 PBRM1 KO cells expressing shRNA against non-targeting control (NTC), ARID2 (clone 1) or SMARCA4 (clone 2) (n=10 tumors per group). Data are presented as mean values+/−SEM for tumor growth and mean values+/−SD for tumor weight. **** p<0.0001 (two-sided t-test).
It was previously shown that inhibiting the SMARCA4 ATPAse subunit abolished chromatin accessibility and binding of SMARCA4-dependent transcription factors. To understand whether the activation of pathway requires the ATPase activity of SMARCA4, 786-O and NCC432 cells were treated with SMARCA2/4 ATPase inhibitor. […]

[7] = test system: NF-κB target genes (786-O cells); experiment: RT-qPCR of NF-κB target genes after SMARCA2/4 ATPase inhibitor, 786-O; assay type: cell-based, human
[8] = test system: RCC; details: best responder to the combined therapy; cited from earlier work

Compound: CC(C)(C)c1ccc(S(=O)(=O)/C=C/C#N)cc1 [Bay 11-7085]
- effect on IκBα phosphorylation ([1]; TNFα-induced vs basal): inhibits TNFα-induced but not basal IκBα phosphorylation
- effect on nuclear translocation of NF-κB ([1]; TNFα-induced): prevents TNFα-induced nuclear translocation of NF-κB
- suppressing the expression of NF-κB target genes [2]: not Bay 11-7085 was effective
- reducing colony formation [3]: not Bay 11-7085 was effective

Compound: O=C(Nc1cc(C(F)F)ns1)Nc1cc(F)ncc1CO [SMARCA2/4 ATPase inhibitor]
- gene set enrichment of direct NF-κB targets, PB1-deficient vs parental [4]: greater effect of NF-κB downregulation in PB1-deficient cells compared to parental 786-O cells; also recorded: greater downregulation of NF-κB pathway in PBRM1-deficient cells compared to parental 786-O cells
- regions probed with significantly decreased RELA occupancy [5]: 5/6
- downregulation of BCL2A1 and TNF, PB1-deficient vs proficient ([6]; NCC432): greater downregulation in the PB1-deficient setting compared to the proficient setting
- downregulation of NF-κB target genes ([6]; NCC432 empty vector or PBRM1, 3 days): dose-dependent downregulation of NF-κB target genes
- downregulation of BCL2A1 and TNF, PB1-deficient vs proficient ([7]; 786-O): greater downregulation in the PB1-deficient setting compared to the proficient setting
- downregulation of NF-κB target genes ([7]; 786-O parental and PB1 KO, 10, 20 and 50 μM, 3 days): dose-dependent downregulation of NF-κB target genes
- sensitivity of PDLIM4 and APOL3 expression ([7]; both PB1-proficient and deficient setting): exquisitely sensitive

Compound: bevacizumab: bevacizumab therapy
- prior therapy outcome [8]: failed
